Experimental data from PubChem BioAssay AID1963838 (Molecular Pharmacology Branch, DTP, NCI, 2024).
pIC50: −log10 of the molar value.

Tested on: 855422-203-R-J1-PDC complex spheroid viability
Assay: Anticancer human tumor 855422-203-R-J1-PDC patient-derived bladder carcinoma cell line growth inhibition [POLQ]
Settings: for pIC50: curve of first compound; for viability, T/C: stronger effect = lower value
Summary of the method: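 Complex spheroid viability model combining PDC tumour cells with endothelial (HUVEC) and MSC stromal cells. Novobiocin, ART-558 or RP6685 were tested singly and in combination with standard and investigational anticancer drugs. Each was titrated in half-log steps from near clinical Cmax, or from 10 microM where Cmax was unknown.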
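Note: spheroids exposed to compounds for seven days before readout.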

For `CCc1cc2c(N3CCc4c(cc(Cn5ccnc5)cc4-c4cn(C)nc4C(F)(F)F)C3=O)cc(C)nc2c(OC)n1` + Nc1ccc(C#CCN(C(=O)Cc2ncc(C(F)(F)F)cc2C(F)(F)F)c2ccc(F)cc2)nn1, the pIC50 (second compound 0.0316 µM) was 5.22, the pIC50 (second compound 0.1 µM) was 5.28 and the pIC50 (second compound 0.316 µM) was 5.26. For the same compound, the pIC50 (second compound 1 µM) was 5.19, the pIC50 (second compound 3.16 µM) was 5.28 and the pIC50 (second compound 10 µM) was 5.46. For the same compound, the viability, T/C (second compound 0.0316 µM, first compound 0.0316 µM) was 133%, the viability, T/C (second compound 0.0316 µM, first compound 0.1 µM) was 120% and the viability, T/C (second compound 0.0316 µM, first compound 0.316 µM) was 119%. For the same compound, the viability, T/C (second compound 0.0316 µM, first compound 1 µM) was 93.5%, the viability, T/C (second compound 0.0316 µM, first compound 3.16 µM) was 66.3% and the viability, T/C (second compound 0.0316 µM, first compound 10 µM) was 37.1%. It also gave a viability, T/C (second compound 0.1 µM, first compound 0.0316 µM) of 131%, a viability, T/C (second compound 0.1 µM, first compound 0.1 µM) of 138% and a viability, T/C (second compound 0.1 µM, first compound 0.316 µM) of 127%. It also gave a viability, T/C (second compound 0.1 µM, first compound 1 µM) of 96%, a viability, T/C (second compound 0.1 µM, first compound 3.16 µM) of 63.5% and a viability, T/C (second compound 0.1 µM, first compound 10 µM) of 35.5%. It also gave a viability, T/C (second compound 0.316 µM, first compound 0.0316 µM) of 114%, a viability, T/C (second compound 0.316 µM, first compound 0.1 µM) of 138% and a viability, T/C (second compound 0.316 µM, first compound 0.316 µM) of 108%. The viability, T/C (second compound 0.316 µM, first compound 1 µM) was 95.8%, the viability, T/C (second compound 0.316 µM, first compound 3.16 µM) was 61.5% and the viability, T/C (second compound 0.316 µM, first compound 10 µM) was 37.4%. For the same compound, the viability, T/C (second compound 1 µM, first compound 0.0316 µM) was 111%, the viability, T/C (second compound 1 µM, first compound 0.1 µM) was 121% and the viability, T/C (second compound 1 µM, first compound 0.316 µM) was 111%. For the same compound, the viability, T/C (second compound 1 µM, first compound 1 µM) was 92.2%, the viability, T/C (second compound 1 µM, first compound 3.16 µM) was 71.5% and the viability, T/C (second compound 1 µM, first compound 10 µM) was 37.1%. For the same compound, the viability, T/C (second compound 3.16 µM, first compound 0.0316 µM) was 110%, the viability, T/C (second compound 3.16 µM, first compound 0.1 µM) was 118% and the viability, T/C (second compound 3.16 µM, first compound 0.316 µM) was 133%. It also gave a viability, T/C (second compound 3.16 µM, first compound 1 µM) of 92.5%, a viability, T/C (second compound 3.16 µM, first compound 3.16 µM) of 61.2% and a viability, T/C (second compound 3.16 µM, first compound 10 µM) of 38.6%. It also gave a viability, T/C (second compound 10 µM, first compound 0.0316 µM) of 116%, a viability, T/C (second compound 10 µM, first compound 0.1 µM) of 115% and a viability, T/C (second compound 10 µM, first compound 0.316 µM) of 98%. For the same compound, the viability, T/C (second compound 10 µM, first compound 1 µM) was 77.4%, the viability, T/C (second compound 10 µM, first compound 3.16 µM) was 52.2% and the viability, T/C (second compound 10 µM, first compound 10 µM) was 31.7%.
